Experimental findings from US20220089568A1 (Janssen Biotech, Inc., priority 2019, published 2022) are described below.

The subject of one experiment is MOLM-13 cells. The experiment in a line: MOLM-13 Cellular Assay. Type of experiment: cell-based. The settings on record: Homo sapiens, 72 hours exposure, cell viability by CellTiter-Glo. The protocol: The day prior to assay set-up, cells were pelleted, resuspended in fresh media, counted, and cells were plated at 0.4×10^6 cell/mL in a T150 flask. […] Cells were exposed to different concentrations of test compounds at 37° C., 5% CO2 for 72 hours immediately after seeding.
(In general: ATP-based viability assays read luminescence as a measure of living cells.)

The target of the next experiment is T1, human DHODH (Homo sapiens, UniProt Q02127).
T1 construct: purchased Proteros PR-0044
The experiment in a line: DHODH Enzymatic Assay. Type of experiment: biochemical. To be noted: purified human DHODH; DCIP absorbance, end-point mode. How it is done: To detect DHODH enzyme activities, dichloroindophenol (DCIP) is added as the final electron acceptor in the assay. DCIP can accept electrons from the reduced coenzyme Q generated in the assay, or from dihydroorotate (DHO) via FMN by binding presumably to the ubiquinone pocket. […] The assay buffer contained […], pH 7.5, 150 mM NaCl, 0.5 mM EDTA, and 0.1% Triton X-100 in MilliQ water. Substrate consisting of 20 mM DHO, 5 mM CoQ6, and 1 mM DCIP in assay buffer, initiates the reaction. […] Absorbance measurements were obtained using the BMG Phera Star plate-reading spectrophotomer. Purified human DHODH was purchased from Proteros (cat. No. PR-0044). Chemicals were purchased from Sigma-Aldrich, Teknova, and Avanti Polar Lipids. Liquid handling was performed using Labcyte Echo and Formulatrix Tempest.

Some results are limits rather than exact numbers.

T1 sequence (Q02127 whole entry): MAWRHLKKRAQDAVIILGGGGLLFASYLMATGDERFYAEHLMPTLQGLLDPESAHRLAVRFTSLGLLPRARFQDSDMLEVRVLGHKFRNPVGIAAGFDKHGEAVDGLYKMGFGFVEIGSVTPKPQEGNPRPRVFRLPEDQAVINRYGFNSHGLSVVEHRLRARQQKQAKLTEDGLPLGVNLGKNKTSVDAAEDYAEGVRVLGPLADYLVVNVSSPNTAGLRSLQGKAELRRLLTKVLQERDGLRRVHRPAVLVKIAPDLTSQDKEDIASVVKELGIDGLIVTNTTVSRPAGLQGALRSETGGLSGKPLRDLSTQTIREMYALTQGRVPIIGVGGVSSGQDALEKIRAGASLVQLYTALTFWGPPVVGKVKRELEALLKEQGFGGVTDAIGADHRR

Consider `Cc1ccnc(Cl)c1NC(=O)c1cc(F)c(-n2nc(CO)n(CC(F)F)c2=O)nc1O[C@@H](C)C(F)(F)F` [Example 90, N-(2-Chloro-4-methyl-3-pyridyl)-6-[4-(2,2-difluoroethyl)-3-(hydroxymethyl)-5-oxo-1,2,4-triazol-1-yl]-5-fluoro-2-[(1S)-2,2,2-trifluoro-1-methyl-ethoxy]pyridine-3-carboxamide], for which the figures for the EC50 in the experiment on MOLM-13 cells and at human DHODH were 14.9 nM and 23.1 nM, respectively.

Consider `CCn1c(C(C)O)nn(-c2nc(O[C@@H](C)C(F)(F)F)c(C(=O)Nc3c(C)n[nH]c3C(F)(F)F)cc2F)c1=O` (mixture of isomers) [Example 127, (Racemic)-6-[4-Ethyl-3-(1-hydroxyethyl)-5-oxo-1,2,4-triazol-1-yl]-5-fluoro-N-[3-methyl-5-(trifluoromethyl)-1H-pyrazol-4-yl]-2-(2,2,2-trifluoro-1-methyl-ethoxy)pyridine-3-carboxamide], for which the EC50 with MOLM-13 cells came to 0.938 nM; at human DHODH, 4.22 nM.

In the case of `CCn1c(CO)nn(-c2nc(O[C@@H](C)C(F)(F)F)c(C(=O)Nc3conc3C)cc2F)c1=O` [Example 45, (S)-6-(4-Ethyl-3-(hydroxymethyl)-5-oxo-4,5-dihydro-1H-1,2,4-triazol-1-yl)-5-fluoro-N-(3-methylisoxazol-4-yl)-2-((1,1,1-trifluoropropan-2-yl)oxy)nicotinamide], the results for the EC50 in the experiment on MOLM-13 cells and at human DHODH were more than 100 nM and 142 nM, respectively.

Take `CCn1c(CO)nn(-c2nc(O[C@@H](C)C(F)(F)F)c(C(=O)Nc3c(F)cncc3C#N)cc2F)c1=O` [Example 29, (S)-N-(3-Cyano-5-fluoropyridin-4-yl)-6-(4-ethyl-3-(hydroxymethyl)-5-oxo-4,5-dihydro-1H-1,2,4-triazol-1-yl)-5-fluoro-2-((1,1,1-trifluoropropan-2-yl)oxy)nicotinamide]: the EC50 in the experiment on MOLM-13 cells is 4.4 nM; on human DHODH, 2.5 nM.

As for `CCn1c(CO)nn(-c2nc(O[C@@H](C)C(F)(F)F)c(C(=O)Nc3cc(C)cnc3C)cc2F)c1=O` [Example 51, (S)-N-(2,5-Dimethylpyridin-3-yl)-6-(4-ethyl-3-(hydroxymethyl)-5-oxo-4,5-dihydro-1H-1,2,4-triazol-1-yl)-5-fluoro-2-((1,1,1-trifluoropropan-2-yl)oxy)nicotinamide], the figures for the EC50 in the experiment on MOLM-13 cells and at human DHODH were 52.4 nM and 6.4 nM, respectively.

For `CCn1c(CO)nn(-c2nc(O[C@@H](C)C(F)(F)F)c(C(=O)Nc3ncccc3Cl)cc2F)c1=O` [Example 54, (S)-N-(3-Chloropyridin-2-yl)-6-(4-ethyl-3-(hydroxymethyl)-5-oxo-4,5-dihydro-1H-1,2,4-triazol-1-yl)-5-fluoro-2-((1,1,1-trifluoropropan-2-yl)oxy)nicotinamide], the EC50 was 6.9 nM in the experiment on MOLM-13 cells and 5.2 nM at human DHODH.

Consider `CCn1c(CO)nn(-c2nc(O[C@@H](C)C(F)(F)F)c(C(=O)Nc3cc(C(F)F)ncc3F)cc2F)c1=O` [Example 81, N-[2-(Difluoromethyl)-5-fluoro-4-pyridyl]-6-[4-ethyl-3-(hydroxymethyl)-5-oxo-1,2,4-triazol-1-yl]-5-fluoro-2-[(1S)-2,2,2-trifluoro-1-methyl-ethoxy]pyridine-3-carboxamide], for which the EC50 with MOLM-13 cells was more than 100 nM; at human DHODH, 568 nM.

With `CCn1c(CO)nn(-c2nc(O[C@@H](C)C(F)(F)F)c(C(=O)Nc3c(Cl)ccnc3OC)cc2F)c1=O` [Example 126, N-(4-Chloro-2-methoxy-3-pyridyl)-6-[4-ethyl-3-(hydroxymethyl)-5-oxo-1,2,4-triazol-1-yl]-5-fluoro-2-[(1S)-2,2,2-trifluoro-1-methyl-ethoxy]pyridine-3-carboxamide], the EC50 with MOLM-13 cells is 0.328 nM; at human DHODH, 0.312 nM.

In the case of `CCn1c(CO)nn(-c2nc(O[C@@H](C)C(F)(F)F)c(C(=O)Nc3cc(C#N)cnc3Cl)cc2F)c1=O` [Example 75, (S)-N-(2-Chloro-5-cyanopyridin-3-yl)-6-(4-ethyl-3-(hydroxymethyl)-5-oxo-4,5-dihydro-1H-1,2,4-triazol-1-yl)-5-fluoro-2-((1,1,1-trifluoropropan-2-yl)oxy)nicotinamide], the EC50 is more than 100 nM in the experiment with MOLM-13 cells and 19.2 nM on human DHODH.

With `CCn1c(CF)nn(-c2nc(O[C@@H](C)C(F)(F)F)c(C(=O)Nc3c(F)cccc3Cl)cc2F)c1=O` [Example 3, (S)-N-(2-Chloro-6-fluorophenyl)-6-(4-ethyl-3-(fluoromethyl)-5-oxo-4,5-dihydro-1H-1,2,4-triazol-1-yl)-5-fluoro-2-((1,1,1-trifluoropropan-2-yl)oxy)nicotinamide], the EC50 in the experiment with MOLM-13 cells turned out to be 0.037 nM; on human DHODH it was 0.245 nM.

On to `CCn1c(CO)nn(-c2nc(O[C@@H](C)C(F)(F)F)c(C(=O)Nc3nccn3C3CC3)cc2F)c1=O` [Example 73, (S)-N-(1-Cyclopropyl-1H-imidazol-2-yl)-6-(4-ethyl-3-(hydroxymethyl)-5-oxo-4,5-dihydro-1H-1,2,4-triazol-1-yl)-5-fluoro-2-((1,1,1-trifluoropropan-2-yl)oxy)nicotinamide], for which the values for the EC50 in the experiment with MOLM-13 cells and on human DHODH were more than 100 nM and 95.2 nM, respectively.

With `CCCn1c(CO)nn(-c2nc(O[C@@H](C)C(F)(F)F)c(C(=O)Nc3c(C)n[nH]c3Cl)cc2F)c1=O` [Example 91, N-(5-Chloro-3-methyl-1H-pyrazol-4-yl)-5-fluoro-6-[3-(hydroxymethyl)-5-oxo-4-propyl-1,2,4-triazol-1-yl]-2-[(1S)-2,2,2-trifluoro-1-methyl-ethoxy]pyridine-3-carboxamide], the EC50 amounted to 2.04 nM in the experiment with MOLM-13 cells and 3.86 nM at human DHODH.

As for `CCn1c(CO)nn(-c2nc(O[C@@H](C)C(F)(F)F)c(C(=O)Nc3cc(C)ncc3F)cc2F)c1=O` [Example 37, (S)-6-(4-Ethyl-3-(hydroxymethyl)-5-oxo-4,5-dihydro-1H-1,2,4-triazol-1-yl)-5-fluoro-N-(5-fluoro-2-methylpyridin-4-yl)-2-((1,1,1-trifluoropropan-2-yl)oxy)nicotinamide], the EC50 with MOLM-13 cells is more than 100 nM; on human DHODH, 200 nM.

For the compound `CCn1c(CO)nn(-c2nc(O[C@@H](C)C(F)(F)F)c(C(=O)Nc3c(Cl)n[nH]c3C(F)(F)F)cc2F)c1=O` [Example 112, N-[3-Chloro-5-(trifluoromethyl)-1H-pyrazol-4-yl]-6-[4-ethyl-3-(hydroxymethyl)-5-oxo-1,2,4-triazol-1-yl]-5-fluoro-2-[(1S)-2,2,2-trifluoro-1-methyl-ethoxy]pyridine-3-carboxamide], the EC50 came out at 0.303 nM in the experiment with MOLM-13 cells and 4.12 nM on human DHODH.

Take `CCn1c(CO)nn(-c2nc(O[C@@H](C)C(F)(F)F)c(C(=O)Nc3ccccc3F)cc2F)c1=O` [Example 2, (S)-6-(4-Ethyl-3-(hydroxymethyl)-5-oxo-4,5-dihydro-1H-1,2,4-triazol-1-yl)-5-fluoro-N-(2-fluorophenyl)-2-((1,1,1-trifluoropropan-2-yl)oxy)nicotinamide]: the concentration giving a half-maximal response (EC50) with MOLM-13 cells stood at 5.2 nM; at human DHODH it was 6.1 nM.

As to `CCn1c(CO)nn(-c2nc(O[C@@H](C)C(F)(F)F)c(C(=O)Nc3c[nH]nc3C#N)cc2F)c1=O` [Example 100, N-(3-Cyano-1H-pyrazol-4-yl)-6-[4-ethyl-3-(hydroxymethyl)-5-oxo-1,2,4-triazol-1-yl]-5-fluoro-2-[(1S)-2,2,2-trifluoro-1-methyl-ethoxy]pyridine-3-carboxamide], the EC50 with MOLM-13 cells is 19 nM; at human DHODH it was more than 100 nM.

`CCn1c(CO)nn(-c2nc(O[C@@H](C)C(F)(F)F)c(C(=O)Nc3c(C)n[nH]c3Cl)cc2F)c1=O` [Example 25, (S)-N-(5-Chloro-3-methyl-1H-pyrazol-4-yl)-6-(4-ethyl-3-(hydroxymethyl)-5-oxo-4,5-dihydro-1H-1,2,4-triazol-1-yl)-5-fluoro-2-((1,1,1-trifluoropropan-2-yl)oxy)nicotinamide]: the EC50 came to 3 nM with MOLM-13 cells and 0.84 nM at human DHODH.

Turning to `CCn1c(CO)nn(-c2nc(O[C@@H](C)C(F)(F)F)c(C(=O)Nc3cn(C)nc3Cl)cc2F)c1=O` [Example 80, N-(3-Chloro-1-methyl-pyrazol-4-yl)-6-[4-ethyl-3-(hydroxymethyl)-5-oxo-1,2,4-triazol-1-yl]-5-fluoro-2-[(1S)-2,2,2-trifluoro-1-methyl-ethoxy]pyridine-3-carboxamide], the EC50 in the experiment on MOLM-13 cells amounted to 12.9 nM; on human DHODH, 7.2 nM.

In the case of `CCn1c(CO)nn(-c2nc(O[C@@H](C)C(F)(F)F)c(C(=O)Nc3c(F)cnc(OC)c3Cl)cc2F)c1=O` [Example 30, (S)-N-(3-Chloro-5-fluoro-2-methoxypyridin-4-yl)-6-(4-ethyl-3-(hydroxymethyl)-5-oxo-4,5-dihydro-1H-1,2,4-triazol-1-yl)-5-fluoro-2-((1,1,1-trifluoropropan-2-yl)oxy)nicotinamide], the EC50 amounted to 1.3 nM in the experiment on MOLM-13 cells and 1.2 nM on human DHODH.

As to `CCn1c(CO)nn(-c2nc(O[C@@H](C)C(F)(F)F)c(C(=O)Nc3cnsc3)cc2F)c1=O` [Example 12, (S)-6-(4-Ethyl-3-(hydroxymethyl)-5-oxo-4,5-dihydro-1H-1,2,4-triazol-1-yl)-5-fluoro-N-(isothiazol-4-yl)-2-((1,1,1-trifluoropropan-2-yl)oxy)nicotinamide], the figures for the EC50 with MOLM-13 cells and on human DHODH were 672 nM and 324 nM, respectively.

As usually defined, the EC50 is the midpoint of the concentration-response curve. Read a high EC50 as weaker potency.
